# In ChEMBL document CHEMBL4765379, “Synthesis and biological evaluation of diaryl urea derivatives designed as potential anticarcinoma agents using de novo structure-based lead optimization approach” (Eur J Med Chem, 2020):
# Assays:
# HT-29 [1] = experiment: Antiproliferative activity against human HT-29 cells assessed as reduction in cell growth incubated for 48 hrs by MTT assay; type: functional, cell-based; settings: HT-29, 48 h
# A549 = experiment: Antiproliferative activity against human A549 cells assessed as reduction in cell growth incubated for 48 hrs by MTT assay; type: functional, cell-based; settings: A549, 48 h
# HT-29 [2] = experiment: Induction of apoptosis in human HT-29 cells assessed as viable cells at 15 uM incubated for 48 hrs by annexin V-FITC and PI staining based flow cytometry analysis (reference value: 88.2 %); type: functional; settings: read-out: Activity
# HT-29 [3] = experiment: Induction of cell cycle arrest in human HT-29 cells assessed as G1 phase accumulation at 15 uM incubated for 48 hrs by PI staining based flow cytometry analysis (reference value: 56.39 %); type: functional
# HT-29 [4] = experiment: Induction of cell cycle arrest in human HT-29 cells assessed as G2 phase accumulation at 15 uM incubated for 48 hrs by PI staining based flow cytometry analysis (reference value: 11.7 %); type: functional
# HT-29 [5] = experiment: Induction of apoptosis in human HT-29 cells assessed as necrotic cells at 15 uM incubated for 48 hrs by annexin V-FITC and PI staining based flow cytometry analysis (reference value: 9.68 %); type: functional
# HT-29 [6] = experiment: Induction of cell cycle arrest in human HT-29 cells assessed as subG1 phase accumulation at 15 uM incubated for 48 hrs by PI staining based flow cytometry analysis (reference value: 0.06 %); type: functional
# HT-29 [7] = experiment: Induction of apoptosis in human HT-29 cells assessed as early apoptotic cells at 15 uM incubated for 48 hrs by annexin V-FITC and PI staining based flow cytometry analysis (reference value: 1.01 %); type: functional
# HT-29 [8] = experiment: Induction of cell cycle arrest in human HT-29 cells assessed as S phase accumulation at 15 uM incubated for 48 hrs by PI staining based flow cytometry analysis (reference value: 36.98 %); type: functional
SMILES,IC50 (HT-29 [1]),IC50 (A549),further results
O=C(Nc1ccc(OC(=O)c2ccc(Cl)cc2)cc1)Nc1ccc(Cl)c(C(F)(F)F)c1,8.32 µM,6.62 µM,–
O=C(Nc1ccccc1)Nc1ccc(NC(=O)c2ccccc2)cc1,12.7 µM,23.9 µM,–
O=C(Nc1ccc(OC(=O)c2cc3cc([N+](=O)[O-])ccc3s2)cc1)Nc1ccc(Oc2ccccc2)cc1,13.3 µM,25.2 µM,–
COc1ccc(C(=O)Oc2ccc(NC(=O)Nc3ccc(Cl)c(C(F)(F)F)c3)cc2)cc1,33.8 µM,16.1 µM,–
O=C(Nc1ccc(F)cc1)Nc1ccc(OC(=O)c2ccccc2)cc1,94.4 µM,29.7 µM,–
O=C(Nc1ccccc1)Nc1ccc(OC(=O)c2ccccc2)cc1,123 µM,81.2 µM,–
O=C(Nc1ccccc1)Nc1ccc(OC(=O)Cc2ccccc2)cc1,185 µM,153 µM,–
CNC(=O)c1cc(Oc2ccc(NC(=O)Nc3ccc(Cl)c(C(F)(F)F)c3)cc2)ccn1 [SORAFENIB],17.3 µM,5.62 µM,viability at 15 µM (HT-29 [2]): 81.3%; Activity (HT-29 [3]): 75.23%; Activity (HT-29 [4]): 14.54%; Activity (HT-29 [5]): 8.72%; Activity (HT-29 [6]): 1.69%; Activity (HT-29 [7]): 5.76%; Activity (HT-29 [8]): 12.19%
COc1ccc(C(=O)Oc2ccc(NC(=O)Nc3ccccc3)cc2)cc1,175 µM,60.2 µM,–
